One block for each compound: values may come before it.
Columns and labels:
P2X purinoceptor 7 [1] = target: T1, P2X purinoceptor 7 (Mus musculus, UniProt Q9Z1M0); assay: Inhibition of mouse P2X7 receptor expressed in xenopus laevis Oocyte cells by TEVC analysis; assay type: cell-based
T1 sequence (Q9Z1M0 whole entry): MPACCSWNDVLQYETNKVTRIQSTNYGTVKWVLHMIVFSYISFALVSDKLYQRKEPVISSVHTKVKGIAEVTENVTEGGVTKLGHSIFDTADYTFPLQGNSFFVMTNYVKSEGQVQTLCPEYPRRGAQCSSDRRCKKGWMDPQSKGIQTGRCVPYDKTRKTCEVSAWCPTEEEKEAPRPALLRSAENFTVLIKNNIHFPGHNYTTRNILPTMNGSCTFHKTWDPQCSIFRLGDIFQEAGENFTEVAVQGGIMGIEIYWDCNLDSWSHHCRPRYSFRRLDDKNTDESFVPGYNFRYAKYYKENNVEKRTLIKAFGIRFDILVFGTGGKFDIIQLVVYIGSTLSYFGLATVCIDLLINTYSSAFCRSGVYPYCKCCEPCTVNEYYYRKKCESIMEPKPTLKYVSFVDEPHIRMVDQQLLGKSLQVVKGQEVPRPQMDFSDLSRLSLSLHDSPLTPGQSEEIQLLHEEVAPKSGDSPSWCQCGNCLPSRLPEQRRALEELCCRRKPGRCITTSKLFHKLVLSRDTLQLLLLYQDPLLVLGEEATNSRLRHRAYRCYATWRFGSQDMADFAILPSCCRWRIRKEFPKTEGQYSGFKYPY

P2X purinoceptor 7 [2] = target: T2, P2X purinoceptor 7 (Homo sapiens, UniProt Q99572); assay: Inhibition of human P2X7 receptor in HEK cells by fluorescence based calcium influx assay; assay type: cell-based
T2 sequence (Q99572 whole entry): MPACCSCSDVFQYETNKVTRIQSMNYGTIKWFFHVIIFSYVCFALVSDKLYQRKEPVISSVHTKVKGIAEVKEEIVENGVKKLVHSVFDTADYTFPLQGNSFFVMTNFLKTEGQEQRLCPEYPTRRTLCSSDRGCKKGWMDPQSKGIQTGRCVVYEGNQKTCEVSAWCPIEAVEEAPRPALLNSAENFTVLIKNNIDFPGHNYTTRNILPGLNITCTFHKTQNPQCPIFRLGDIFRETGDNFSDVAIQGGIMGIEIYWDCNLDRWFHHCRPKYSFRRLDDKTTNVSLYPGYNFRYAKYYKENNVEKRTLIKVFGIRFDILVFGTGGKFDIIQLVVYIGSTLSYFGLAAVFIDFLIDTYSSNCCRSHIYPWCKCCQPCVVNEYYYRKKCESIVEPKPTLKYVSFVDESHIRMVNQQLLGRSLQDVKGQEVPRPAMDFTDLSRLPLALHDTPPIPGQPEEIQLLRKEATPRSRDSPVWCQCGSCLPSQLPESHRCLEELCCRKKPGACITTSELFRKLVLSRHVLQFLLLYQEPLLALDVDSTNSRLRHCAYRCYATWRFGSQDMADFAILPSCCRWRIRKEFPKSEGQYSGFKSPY

P2X purinoceptor 7 [3] = target: T2, P2X purinoceptor 7; assay: Antagonist activity at P2X7 receptor in human THP-1 cells assessed as reduction in ATP induced IL-1 beta release; assay type: cell-based
P2X purinoceptor 7 [4] = target: T1, P2X purinoceptor 7; assay: Antagonist activity at P2X7 receptor in mouse Peritoneal macrophage cells assessed as reduction in ATP induced IL-1 beta release; assay type: cell-based
[5] = target: T3, P2X purinoceptor 7 (Mus musculus) (UniProt Q9Z1M0); assay: Antagonist activity at P2X7 receptor in mouse Peritoneal macrophage cells assessed as ATP induced dye uptake at 10 uM relative to control; assay type: cell-based; conditions: filed as antagonist
T3 sequence (whole entry): T1 sequence (Q9Z1M0 whole entry)

Mus musculus = assay: Antiinflammatory activity in ATP induced mouse paw edema model; assay type: functional; conditions: read-out: ID50 (the source's name)
P2X purinoceptor 7 [6] = target: T2, P2X purinoceptor 7; assay: Inhibition of human P2X7 receptor transfected in HEK293 cells by calcium influx assay; assay type: cell-based
P2X purinoceptor 7 [7] = target: T4, P2X purinoceptor 7 (Rattus norvegicus, UniProt Q64663); assay: Inhibition of rat P2X7 receptor transfected in HEK293 cells by calcium influx assay; assay type: cell-based
T4 sequence (Q64663 whole entry): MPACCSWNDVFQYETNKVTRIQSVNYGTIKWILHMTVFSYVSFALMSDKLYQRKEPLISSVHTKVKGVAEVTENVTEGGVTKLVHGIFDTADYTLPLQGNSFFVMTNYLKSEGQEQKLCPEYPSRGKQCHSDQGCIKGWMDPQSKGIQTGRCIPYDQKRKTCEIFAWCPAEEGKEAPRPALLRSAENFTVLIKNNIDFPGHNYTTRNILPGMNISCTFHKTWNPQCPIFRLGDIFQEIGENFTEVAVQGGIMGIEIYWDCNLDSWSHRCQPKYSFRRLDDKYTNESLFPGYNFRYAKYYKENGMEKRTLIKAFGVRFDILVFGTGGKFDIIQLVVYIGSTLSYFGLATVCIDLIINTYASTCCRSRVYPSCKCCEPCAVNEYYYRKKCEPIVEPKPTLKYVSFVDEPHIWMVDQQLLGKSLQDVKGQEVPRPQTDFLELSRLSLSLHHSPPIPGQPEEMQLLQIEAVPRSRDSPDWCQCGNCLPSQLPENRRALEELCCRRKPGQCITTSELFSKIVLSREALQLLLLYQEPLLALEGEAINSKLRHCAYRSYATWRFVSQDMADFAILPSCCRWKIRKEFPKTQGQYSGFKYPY

P2X purinoceptor 7 [8] = target: T2, P2X purinoceptor 7; assay: Antagonist activity at recombinant human P2X7 receptor expressed in 1321N1 cells measured after 30 mins by fluorescence based calcium flux assay; assay type: cell-based
[9] = Half life in human liver microsomes; assay type: ADME, Microsome
P2X purinoceptor 7 [10] = target: T2, P2X purinoceptor 7; assay: Antagonist activity at P2X7 in human THP-1 cells; assay type: cell-based
[11] = Half life in Han Wistar rat plasma at 1 mg/kg, iv measured upto 6 hrs by liquid chromatography tandem mass spectrometry; assay type: ADME, organism-based
[12] = Half life in Han Wistar rat Brain at 1 mg/kg, iv measured upto 6 hrs by liquid chromatography tandem mass spectrometry; assay type: ADME, organism-based
[13] = AUC(0 to 6 hrs) in Han Wistar rat plasma at 1 mg/kg, iv measured upto 6 hrs by liquid chromatography tandem mass spectrometry; assay type: ADME, organism-based; design: time < 6 hrs, dose 1 mg/kg, route iv
[14] = AUC(0 to 6 hrs) in Han Wistar rat Brain at 1 mg/kg, iv measured upto 6 hrs by liquid chromatography tandem mass spectrometry; assay type: ADME, organism-based; design: time < 6 hrs, dose 1 mg/kg, route iv
P2X purinoceptor 7 [15] = target: T2, P2X purinoceptor 7; assay: Inhibition of human P2X7 receptor expressed in HEK293 cells incubated for 5 mins followed by Bz-ATP addition measured after 3 mins by fluorescence based assay; assay type: cell-based
P2X purinoceptor 7 [16] = target: T1, P2X purinoceptor 7; assay: Inhibition of mouse P2X7 receptor expressed in HEK293 cells incubated for 5 mins followed by Bz-ATP addition measured after 3 mins by fluorescence based assay; assay type: cell-based

Structure (SMILES): O=C(NCC1(c2ccc(CO[N+](=O)[O-])cc2)CCCCC1)c1ccccc1Cl
IC50 (P2X purinoceptor 7 [1]): 390 nM

Structure (SMILES): COc1ccc(Cl)c(C(=O)NCC23CC4CC(CC(F)(C4)C2)C3)c1
IC50 (P2X purinoceptor 7 [2]): 17 nM

Structure (SMILES): O=C1CCC(C(=O)NCC2CCCCCCC2)c2cccnc21 (centres undefined)
IC50 (P2X purinoceptor 7 [6]): > 1000 nM
IC50 (P2X purinoceptor 7 [7]): > 1000 nM

Structure (SMILES): O=C(NCc1cccc(C(F)(F)F)c1Cl)[C@@]1(O)CCC(O)c2ncccc21 (some centres undefined)
IC50 (P2X purinoceptor 7 [6]): 101 nM
IC50 (P2X purinoceptor 7 [7]): < 1000 nM

Structure (SMILES): Cc1ccc(C2(CNC(=O)c3cc(CO[N+](=O)[O-])ccc3Cl)CCCCC2)cc1
IC50 (P2X purinoceptor 7 [1]): 1430 nM

Structure (SMILES): COc1ccc(Cl)c(C(=O)NCC23CC4(F)CC(F)(CC(F)(C4)C2)C3)c1
half-life [11]: 103 min
half-life [12]: 75.6 min
AUC(0-t) at 6 h [13]: 385 ng·h/mL
AUC(0-t) at 6 h [14]: 380 ng·h/mL

More lines, main results first:

IC50 (P2X purinoceptor 7 [3]): 1100 nM
IC50 (P2X purinoceptor 7 [4]): 1500 nM
inhibition [5]: 60%
Structure (SMILES): CC1=C(C(c2ccc(Cl)cc2)n2cc(COCc3ccco3)nn2)C(=O)c2ccccc2C1=O (centres undefined)
ED50 (Mus musculus): 16 mg/kg

IC50 (P2X purinoceptor 7 [8]): 3.1 nM
Structure (SMILES): O=C(OCC1c2ncn(-c3ccccc3)c2CCN1C(=O)c1cccc(C(F)(F)F)c1Cl)c1cccc(C(F)(F)F)c1Cl (centres undefined)

half-life [9]: 55.8 min
IC50 (P2X purinoceptor 7 [10]): 9.3 nM
Structure (SMILES): Cc1ccc2c(=O)n(C(C)CO)ccc2c1NC(=O)Cc1ccc(C(F)(F)F)c(F)c1 (centres undefined)

IC50 (P2X purinoceptor 7 [15]): 11.1 nM
IC50 (P2X purinoceptor 7 [16]): 13.4 nM
Structure (SMILES): O=C(NCC(c1scnc1C(F)F)N1CCC(Oc2cccc(Cl)n2)CC1)c1c(F)cccc1Cl (centres undefined)

half-life [11]: 28.2 min
half-life [12]: 9.6 min
AUC(0-t) at 6 h [13]: 186 ng·h/mL
AUC(0-t) at 6 h [14]: 221 ng·h/mL
Structure (SMILES): COc1ccc(Cl)c(C(=O)NCC23CC4CC(CC(C4)C2)C3)c1

— ChEMBL document CHEMBL5360537, “From lead to clinic: A review of the structural design of P2X7R antagonists” (Eur J Med Chem, 2023)
